One test has as its target T1, Histone deacetylase 6 (Homo sapiens, UniProt Q9UBN7).
T1 sequence (Q9UBN7 whole entry): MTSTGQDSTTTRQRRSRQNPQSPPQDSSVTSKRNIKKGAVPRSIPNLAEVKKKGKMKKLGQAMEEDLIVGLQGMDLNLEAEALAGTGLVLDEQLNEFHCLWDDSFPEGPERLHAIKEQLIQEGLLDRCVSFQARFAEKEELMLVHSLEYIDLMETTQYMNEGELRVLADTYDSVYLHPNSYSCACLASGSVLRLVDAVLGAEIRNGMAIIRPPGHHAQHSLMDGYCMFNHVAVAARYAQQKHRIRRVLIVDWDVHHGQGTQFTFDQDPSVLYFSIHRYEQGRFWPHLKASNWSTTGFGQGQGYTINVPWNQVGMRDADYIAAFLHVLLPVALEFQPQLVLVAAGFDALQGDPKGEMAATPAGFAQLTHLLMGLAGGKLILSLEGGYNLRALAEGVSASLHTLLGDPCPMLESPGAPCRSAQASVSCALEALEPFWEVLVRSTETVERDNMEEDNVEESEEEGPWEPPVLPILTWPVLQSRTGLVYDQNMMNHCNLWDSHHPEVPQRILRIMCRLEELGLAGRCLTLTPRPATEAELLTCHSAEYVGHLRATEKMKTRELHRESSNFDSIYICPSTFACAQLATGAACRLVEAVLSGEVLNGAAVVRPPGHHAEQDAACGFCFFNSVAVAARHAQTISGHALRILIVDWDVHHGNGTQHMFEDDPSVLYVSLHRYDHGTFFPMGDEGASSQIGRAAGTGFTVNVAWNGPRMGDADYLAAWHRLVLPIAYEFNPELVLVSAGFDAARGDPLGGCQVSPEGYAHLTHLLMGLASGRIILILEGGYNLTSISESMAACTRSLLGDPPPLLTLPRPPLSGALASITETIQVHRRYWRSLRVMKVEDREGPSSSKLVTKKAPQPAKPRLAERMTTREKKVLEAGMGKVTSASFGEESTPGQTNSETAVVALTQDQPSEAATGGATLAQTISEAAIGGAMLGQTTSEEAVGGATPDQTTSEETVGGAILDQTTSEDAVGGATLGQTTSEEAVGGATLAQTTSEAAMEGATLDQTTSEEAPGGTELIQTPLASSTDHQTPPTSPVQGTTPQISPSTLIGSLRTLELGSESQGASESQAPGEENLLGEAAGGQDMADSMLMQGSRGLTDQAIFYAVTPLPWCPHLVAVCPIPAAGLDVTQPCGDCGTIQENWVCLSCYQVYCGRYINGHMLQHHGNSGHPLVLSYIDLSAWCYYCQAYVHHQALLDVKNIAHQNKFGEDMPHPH
Nature of the test: Inhibition of HDAC Enzyme Activity (In Vitro). On the procedure:
(§1) In the HDAC1 assay, the test substance was treated at concentrations of 100, 1000, and 10000 nM, and in the HDAC6 assay, the test substance was treated at concentrations of 0.1, 1, 10, 100, and 1000 nM.

In a further test the target is Histone deacetylase 1 (Homo sapiens, UniProt Q13547). The test is described as follows: Inhibition of HDAC Enzyme Activity (In Vitro). On the procedure: as §1

What is called IC50 is the concentration that inhibits the measured activity by half. Low readings indicate inhibition by little substance, high ones a need for much substance.

Sequence of Histone deacetylase 1 (Q13547 whole entry): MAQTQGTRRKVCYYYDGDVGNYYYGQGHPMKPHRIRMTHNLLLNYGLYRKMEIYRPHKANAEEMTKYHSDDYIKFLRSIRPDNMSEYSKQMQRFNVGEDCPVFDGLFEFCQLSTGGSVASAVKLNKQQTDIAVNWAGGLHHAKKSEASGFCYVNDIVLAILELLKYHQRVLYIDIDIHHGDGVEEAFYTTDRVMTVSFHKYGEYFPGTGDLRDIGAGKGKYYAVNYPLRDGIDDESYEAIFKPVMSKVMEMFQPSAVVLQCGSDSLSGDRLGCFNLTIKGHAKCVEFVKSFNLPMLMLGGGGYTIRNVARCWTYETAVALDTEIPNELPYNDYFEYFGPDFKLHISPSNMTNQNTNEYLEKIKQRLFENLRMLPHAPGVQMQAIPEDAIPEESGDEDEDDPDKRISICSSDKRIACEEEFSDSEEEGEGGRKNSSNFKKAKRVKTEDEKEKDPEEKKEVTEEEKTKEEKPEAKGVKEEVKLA

Regarding `CN1CCN(c2c(N(Cc3ccc(-c4nnc(C(F)F)o4)cc3F)c3cc(F)cc(-c4ccncc4)c3)c(=O)c2=O)CC1` [US20260028321, Compound 9], the results for the concentration for half-maximal inhibition (IC50) at Histone deacetylase 6 and at Histone deacetylase 1 were 54 nM and greater than 10000 nM, respectively.

For the origin of these results see BindingDB's records for patent US20260028321 (Chong Kun Dang Pharmaceutical, 2026).
